Measurements from US20060183902A1, “Dihydroindolyl methanones as alpha 1a/1d adrenoreceptor modulators for the treatment of benign prostatic hypertrophy and lower urinary tract symptoms” (priority 2005, published 2006).
Several values for one entry are separate records, joined by “and”; a condition that tells them apart may be missing. Equal entries are not always repeated. Where two headings read alike, the source gives them in different places.

What was measured:
α1a-AR = biological target: T1, α1a-AR (Homo sapiens, UniProt P35348); experiment: α1-Adrenergic receptor radio-ligand (125I-HEAT) binding assay, α1a subtype; details: COS-7 cell membranes transfected with α1a-AR, 125I-HEAT 50 pM
T1 construct: expressed in transfected cells; host or cells: COS-7
T1 sequence (P35348 1-466): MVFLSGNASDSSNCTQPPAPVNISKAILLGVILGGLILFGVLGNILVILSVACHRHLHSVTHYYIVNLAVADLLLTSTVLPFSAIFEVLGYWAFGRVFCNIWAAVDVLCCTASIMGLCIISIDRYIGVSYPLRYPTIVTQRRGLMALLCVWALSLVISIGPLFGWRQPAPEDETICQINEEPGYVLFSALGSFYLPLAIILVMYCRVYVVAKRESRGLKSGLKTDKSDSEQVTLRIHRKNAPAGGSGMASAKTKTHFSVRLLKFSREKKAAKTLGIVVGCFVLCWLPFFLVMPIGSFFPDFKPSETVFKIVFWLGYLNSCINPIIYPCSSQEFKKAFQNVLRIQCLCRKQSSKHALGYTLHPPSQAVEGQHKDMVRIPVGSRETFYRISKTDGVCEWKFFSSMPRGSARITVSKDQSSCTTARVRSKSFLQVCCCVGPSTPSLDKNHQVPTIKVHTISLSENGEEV
Method: (§1) Membranes were prepared from COS-7 cells (African Green monkey kidney SV40-transformed cells) that had been transfected with one of the three α1-AR subtypes by the following method:
(§2) COS cells from ten 100 mm tissue culture plates were scraped into a 5 mL volume of TE (a mixture of 50 mM tris(hydroxymethyl)aminomethane hydrochloride (Tris-HCl) and 5 mM ethylenediaminetetraacetic acid (EDTA) at pH 7.4). The cell suspension was disrupted with a Brinkman Polytron (at a setting of 8) for 10 sec. The disrupted cells were centrifuged at 1000×g for 10 min at 4° C. Supernatants were centrifuged at 34,500×g for 20 min at 4° C. The membrane pellets were suspended in a 2 mL volume of TNE (a mixture of 50 mM Tris-HCl, 5 mM EDTA and 150 mM NaCl at pH7.4). An aliquot of the membrane suspension was stored at −70° C. until use. The protein concentration was determined using a BioRad “DC” protein assay kit following membrane solubilization with Triton X-100.
(§3) Triplicate determinations of radio-ligand binding in the presence of increasing concentrations of testing compound were made. The reagents were added to 96-well polypropylene plate wells. Each assay well contained 140 μL TNE, 25 μL ^125I-2-(β-4-hydroxyplenyl)ethylaminomethyltetralone (^125I-HEAT) (specific activity 2200 Ci/mmol, Dupont-New England Nuclear, 50 pM final), 10 μL testing compound dissolved in dimethyl sulfoxide (DMSO) (1 pM to 10 μM in half-log increments, final), and 25 μL appropriate α1-AR membrane subtype suspension in TNE (0.5 ng/μL for the α1a and α1b subtypes and 13 ng/μL for the α1d subtype). The plate was incubated at rt for 1 hr. The contents of the wells were filtered through a glass filter (type C) (GF/C) membrane Unifilter plate (Packard Instruments) using the Packard Filtermate cell harvester. The filter plates were dried in a vacuum oven for 30 min at 40° C. 25 μL Microscint 20 liquid scintillation fluid (Packard Instuments) was added to each well. The radioactive content was analyzed in the TopCount microplate scintillation counter (Packard Instruments).
(§4) The Ki values (in nM) shown in Table 1 were determined using GraphPad Prism software.

α1b-AR = biological target: T2, α1b-AR (Homo sapiens, UniProt P35368); experiment: α1-Adrenergic receptor radio-ligand (125I-HEAT) binding assay, α1b subtype; details: COS-7 cell membranes transfected with α1b-AR, 125I-HEAT 50 pM
T2 construct: expressed in transfected cells; host or cells: COS-7
T2 sequence (P35368 1-520): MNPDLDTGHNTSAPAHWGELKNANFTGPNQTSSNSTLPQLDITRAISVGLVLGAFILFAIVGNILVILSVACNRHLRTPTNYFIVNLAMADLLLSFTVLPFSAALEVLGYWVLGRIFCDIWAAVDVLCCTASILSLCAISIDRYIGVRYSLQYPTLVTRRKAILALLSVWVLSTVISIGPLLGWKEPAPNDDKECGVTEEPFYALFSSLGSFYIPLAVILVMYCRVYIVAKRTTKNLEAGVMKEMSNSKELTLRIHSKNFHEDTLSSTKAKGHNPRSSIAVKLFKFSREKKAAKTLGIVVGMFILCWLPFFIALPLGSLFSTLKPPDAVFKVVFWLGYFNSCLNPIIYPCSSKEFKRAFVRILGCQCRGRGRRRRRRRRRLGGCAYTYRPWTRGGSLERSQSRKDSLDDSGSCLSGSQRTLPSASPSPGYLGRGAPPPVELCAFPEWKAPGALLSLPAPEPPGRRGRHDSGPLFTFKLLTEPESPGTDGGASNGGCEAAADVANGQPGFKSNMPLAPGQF
Method: as §1, §2, §3, §4

α1d-AR = biological target: T3, α1d-AR (Homo sapiens, UniProt P25100); experiment: α1-Adrenergic receptor radio-ligand (125I-HEAT) binding assay, α1d subtype; details: COS-7 cell membranes transfected with α1d-AR, 125I-HEAT 50 pM
T3 construct: expressed in transfected cells; host or cells: COS-7
T3 sequence (P25100 1-572): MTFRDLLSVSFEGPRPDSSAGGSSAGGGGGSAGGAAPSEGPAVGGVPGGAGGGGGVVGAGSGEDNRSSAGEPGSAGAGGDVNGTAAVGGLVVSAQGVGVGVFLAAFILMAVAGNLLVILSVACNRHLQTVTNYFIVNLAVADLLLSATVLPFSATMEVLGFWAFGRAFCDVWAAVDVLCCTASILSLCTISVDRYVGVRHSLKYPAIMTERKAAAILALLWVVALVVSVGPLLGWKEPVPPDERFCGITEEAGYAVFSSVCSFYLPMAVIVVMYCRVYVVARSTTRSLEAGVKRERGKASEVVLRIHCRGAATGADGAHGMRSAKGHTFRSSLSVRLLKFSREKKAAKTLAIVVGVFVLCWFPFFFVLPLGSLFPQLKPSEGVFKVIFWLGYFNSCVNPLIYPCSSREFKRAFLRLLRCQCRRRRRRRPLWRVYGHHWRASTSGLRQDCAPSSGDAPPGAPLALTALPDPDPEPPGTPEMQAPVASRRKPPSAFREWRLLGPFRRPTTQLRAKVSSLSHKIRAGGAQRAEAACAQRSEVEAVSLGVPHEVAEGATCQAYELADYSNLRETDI
Method: as §1, §2, §3, §4

[1] = read-out: Receptor Binding, Ki α1a-AR
[2] = read-out: Receptor Binding, Ki α1b-AR
[3] = read-out: Receptor Binding, Ki α1d-AR

SMILES	Ki (α1a-AR; Receptor Binding, Ki α1a-AR) [nM]	Ki (α1b-AR; Receptor Binding, Ki α1b-AR) [nM]	Ki (α1d-AR; Receptor Binding, Ki α1d-AR) [nM]	Ki (α1a-AR; [1])	Ki (α1b-AR; [2])	Ki (α1d-AR; [3])
Cc1ccc(OC(=O)Nc2ccc3c(c2)N(C(=O)c2cccc(CN4CCN(c5ccccc5OC(C)C)CC4)c2)CC3)cc1 [Cpd 12, (1-{3-[4-(2-isopropoxy-phenyl)-piperazin-1-ylmethyl]-benzoyl}-2,3-dihydro-1H-indol-6-yl)-carbamic acid p-tolyl ester]	3.3	495	5.7			
CC(C)Oc1ccccc1C1CCN(Cc2cccc(C(=O)N3CCc4ccc(NC(=O)Nc5c(F)cccc5F)cc43)c2)CC1 [Cpd 60, 1-(2,6-difluoro-phenyl)-3-(1-{3-[4-(2-isopropoxy-phenyl)-piperidin-1-ylmethyl]-benzoyl}-2,3-dihydro-1H-indol-6-yl)-urea]				0.4 nM	121 nM	0.4 nM
CC(C)Oc1ccccc1N1CCN(Cc2cccc(C(=O)N3CCc4cc(Cl)ccc43)c2)CC1 [Cpd 67, (5-chloro-2,3-dihydro-indol-1-yl)-{3-[4-(2-isopropoxy-phenyl)-piperazin-1-ylmethyl]-phenyl}-methanone]				2.1 nM and 12 nM	1140 nM and 1260 nM	14.7 nM and 22 nM
COc1ccccc1C1CCN(Cc2cccc(C(=O)N3CCc4ccc(NCc5ccccc5F)cc43)c2)CC1 [Cpd 59, [6-(2-fluoro-benzylamino)-2,3-dihydro-indol-1-yl]-{3-[4-(2-methoxy-phenyl)-piperidin-1-ylmethyl]-phenyl}-methanone]				8.3 nM	101 nM	1.1 nM
CC(C)(C)OC(=O)N1CCN(Cc2cccc(C(=O)N3CCc4ccccc43)c2)CC1 [Cpd 54, 4-[3-(2,3-dihydro-indole-1-carbonyl)-benzyl]-piperazine-1-carboxylic acid tert-butyl ester]				67.5 nM		
CCOC(OCC)c1ccc(CNc2ccc3c(c2)CCN3C(=O)c2cccc(CN3CCN(c4ccccc4OC(C)C)CC3)c2)cc1 [Cpd 24, [5-(4-diethoxymethyl-benzylamino)-2,3-dihydro-indol-1-yl]-{3-[4-(2-isopropoxy-phenyl)-piperazin-1-ylmethyl]-phenyl}-methanone]				48 nM	1470 nM	15 nM
COc1ccccc1C1CCN(Cc2ccc(C(=O)N3CCc4ccc(NC(=O)c5c(OC)cccc5OC)cc43)cc2)CC1 [Cpd 39, 2,6-dimethoxy-N-(1-{4-[4-(2-methoxy-phenyl)-piperidin-1-ylmethyl]-benzoyl}-2,3-dihydro-1H-indol-6-yl)-benzamide]				74 nM	595 nM	41 nM
CC(=O)Nc1ccc(S(=O)(=O)Nc2ccc3c(c2)N(C(=O)c2cccc(CN4CCN(c5ccccc5OC(C)C)CC4)c2)CC3)cc1 [Cpd 15, N-[4-(1-{3-[4-(2-isopropoxy-phenyl)-piperazin-1-ylmethyl]-benzoyl}-2,3-dihydro-1H-indol-6-ylsulfamoyl)-phenyl]-acetamide]				1 nM	91 nM	700 nM
COc1ccccc1CN1CCN(Cc2ccc(C(=O)N3CCc4ccccc43)cc2)CC1 [Cpd 53, (2,3-dihydro-indol-1-yl)-{4-[4-(2-methoxy-benzyl)-piperazin-1-ylmethyl]-phenyl}-methanone]				82 nM	104 nM	96 nM
O=C(c1ccc(CN2CCN(c3ccccc3OCC(F)(F)F)CC2)cc1)N1CCc2ccccc21 [Cpd 55, (2,3-dihydro-indol-1-yl)-(4-{4-[2-(2,2,2-trifluoro-ethoxy)-phenyl]-piperazin-1-ylmethyl}-phenyl)-methanone]				25.5 nM	310 nM	43 nM
CC(C)Oc1ccccc1N1CCN(Cc2cccc(C(=O)N3CCc4ccc(NC5CCc6ccccc6C5)cc43)c2)CC1 (stereo not shown) [Cpd 16, {3-[4-(2-isopropoxy-phenyl)-piperazin-1-ylmethyl]-phenyl}-[6-(1,2,3,4-tetrahydro-naphthalen-2-ylamino)-2,3-dihydro-indol-1-yl]-methanone]				5.5 nM	282 nM	3.4 nM
CC(C)Oc1ccccc1N1CCN(Cc2cccc(C(=O)N3CCc4cc(NC(=O)Nc5ccc(Cl)cc5Cl)ccc43)c2)CC1 [Cpd 14, 1-(2,4-dichloro-phenyl)-3-(1-{3-[4-(2-isopropoxy-phenyl)-piperazin-1-ylmethyl]-benzoyl}-2,3-dihydro-1H-indol-5-yl)-urea]				22 nM		4 nM
CCCCCCCCc1ccc(CNc2ccc3c(c2)N(C(=O)c2cccc(CN4CCN(c5ccccc5OC(C)C)CC4)c2)CC3)cc1 [Cpd 10, {3-[4-(2-isopropoxy-phenyl)-piperazin-1-ylmethyl]-phenyl}-[6-(4-octyl-benzylamino)-2,3-dihydro-indol-1-yl]-methanone]				836 nM		250 nM
CC(C)Oc1ccccc1N1CCN(Cc2cccc(C(=O)N3CCc4ccc(NCc5ccccc5F)cc43)c2)CC1 [Cpd 44, [6-(2-fluoro-benzylamino)-2,3-dihydro-indol-1-yl]-{3-[4-(2-isopropoxy-phenyl)-piperazin-1-ylmethyl]-phenyl}-methanone]				1.3 nM		4.2 nM
O=C(c1cccc(CN2CCN(c3ccccc3OCC(F)(F)F)CC2)c1)N1CCc2ccccc21 [Cpd 63, (2,3-dihydro-indol-1-yl)-(3-{4-[2-(2,2,2-trifluoro-ethoxy)-phenyl]-piperazin-1-ylmethyl}-phenyl)-methanone]						0.5 nM and 1.9 nM
COc1ccc(OC)c2c1CC(Nc1ccc3c(c1)N(C(=O)c1cccc(CN4CCN(c5ccccc5OC(C)C)CC4)c1)CC3)C2 [Cpd 29, [6-(4,7-dimethoxy-indan-2-ylamino)-2,3-dihydro-indol-1-yl]-{3-[4-(2-isopropoxy-phenyl)-piperazin-1-ylmethyl]-phenyl}-methanone]				20.8 nM	847 nM	
